Reference: patent US11447495B2, “Substituted benzo[f]imidazo[1,5-a][1,4]diazepines as GABA(a) receptor modulators” (priority 2016, dated 2022)

Legend:
[1] = Microsomal stability, mouse liver microsomes; format: in vitro ADME; settings: 10 μM compound
Experimental: The metabolic stability of compounds in vivo can be estimated with the stability of compounds in the presence of liver microsomes. Therefore, 4 μL of 1 mM DMSO solution of test compound at a final concentration of 10 μM were preincubated at 37° C. for 5 minutes on a digital heating shaking dry bath (Fischer scientific, Pittsburgh, Pa.) in a mixture containing 282 μL of water, 80 μL of phosphate buffer (0.5 M, pH 7.4) 20 μL of NADPH Regenerating System Solution A (BD Bioscience, San Jose, Calif.) and 4 μL of NADPH Regenerating System Solution B (BD Bioscience, San Jose, Calif.) in a total volume of 391.2 μL. Following preincubation, the reaction was initiated by addition of 8.8 μL of either human liver microsomes (BD Gentest, San Jose, Calif.) or mouse liver microsomes (Life technologies, Rockford, Ill.) at a protein concentration of 0.5 mg/mL. Aliquots of 50 μL were taken at time intervals of 0 (without microsomes), 10, 20, 30, 40, 50 and 60 minutes. Each aliquot was added to 100 μL of cold acetonitrile solution containing 1 μM of verapamil HCL as internal standard. This was followed by sonication for 10 seconds and centrifugation at 10,000 rpm for 5 minutes. 100 μL of the supernatant was transferred into Spin-X HPLC filter tubes (Corning Incorporated, NY) and centrifuged at 13,000 rpm for 5 minutes. The filtrate was diluted 100-fold and subsequently analyzed by LC-MS/MS with Shimadzu LCMS 8040, (Shimadzu Scientific Instruments, Columbia, Md.). The ratio of the peak areas of the internal standard and test compound was calculated for every time point and the natural log of the ratio were plotted against time to determine the linear slope (k). The metabolic rate (k*C0/C), half-life (0.693/k), and […] (V*k) were calculated, where k is the slope, C0 is the initial concentration of test compound, C is the concentration of microsomes, and V is the volume of incubation in μL per microsomal protein in mg. All experiments were repeated two time in triplicates.

mucin = test: Mucin production in airway epithelium, morphometric quantification; format: in vivo, Balb/c mice; settings: 100 mg/kg twice for five days
Experimental: Pharmacodynamic effects of compounds in respect to mucus production were investigated after the AHR measurement by harvesting the lungs of treated and non-treated Ova S/C mice followed by formalin fixation and paraffin embedding. Sections were prepared from one lobe (including large and small airways) and processed for standard H&E (for general histopathology and inflammation) and PAS (for mucous cell; as cells/mm of basement membrane) staining. FIGS. 10A-10B show compound effects on mucin production: (A) Morphometric quantification of mucin volume density and (B) representative images of mucin (red) in the airway epithelium (green) with periodic acid fluorescent Schiff's stain. Balb/c mice were administered compounds at 100 mg/kg twice for five days. Data represent mean±SEM from 5-7 mice in each group. Scale bar represents 100 μm.

[2] = Airway hyperresponsiveness (sRaw) to methacholine in ovalbumin asthma model; format: in vivo, ova s/c BALB/c mice; settings: oral gavage, 100 mg/kg twice daily for 5 days, methacholine challenge
Experimental: Compounds described herein may reduce airway hyperresponsiveness in animal models of asthma. Therefore, mice may be sensitized three times with intra-peritoneal (i.p.) injections of 2 mg/kg/d of ovalbumin (Ova) emulsified in […] on days 0, 7 and 14 in a total volume of 100 μL. In addition, mice may be challenged intra-nasally (i.n.) with 1 mg/kg/d Ova for 5 days from days 23-27. Control mice may be sensitized with Ova and challenged with saline. The airway hyperresponsiveness measurements may be carried out with DSI's Buxco® FinePointe Non-Invasive Airway Mechanics (NAM) instrument consisting of a nasal chamber in combination with the thoracic chamber that allows the computation of specific airway resistance (sRaw). Treated conscious, spontaneously breathing Ova S/C mice may be exposed to aerosolized phosphate buffered saline (PBS) (for the baseline measurement) or methacholine (1.5625-12.5 mg/mL) for 1 minute and readings (sRaw) may be taken and averaged for 3 minutes after each nebulization.
Drug treatment protocol: Sterile solutions of compounds were prepared in 2% hydroxypropyl methylcellulose solution (Sigma-Aldrich, St. Louis, Mo.) and 2.5% polyethylene glycol (Sigma Aldrich, St. Louis, Mo.) for oral administration in a biological safety cabinet. A fine suspension was obtained by grinding the mixture with a mortar and pestle. Drugs were administered individually at 100 mg/kg by oral gavage (200 ul) with 20G gavage needles (Kent Scientific Corporation, Torrington Conn.) to groups of ova s/c BALB/c twice daily for 5 days during the ova challenge period. Mice received a single p.o. dose of the compounds just before airway parameter measurements. Compounds for i.p. injection were prepared in 10% DMSO, 40% propylene glycol, and 50% PBS and given as 100 ul injection. Mice were monitored daily after drug administration. Assessment of Airway hyper-responsiveness: Airway hyper-responsiveness to methacholine in conscious, spontaneously breathing animals was measured by DSI's Buxco® FinePointe Non-Invasive Airway Mechanics (NAM) instrument. Before measurements were taken, mice were acclimated to the chambers 15 minutes daily for 5 days. In addition, an ovalbumin sensitization and challenge protocol consists of randomized male BALB/c mice that were sensitized three times with intra-peritoneal (i.p.) injections of 2 mg/kg/d of ovalbumin (Ova) (Sigma-Aldrich, St. Louis, Mo.) emulsified in 2 mg of Alum (Imject Alum; Thermo Scientific, Pierce, Rockford, Ill.) on days 0, 7 and 14 in a total volume of 100 μL. The mice were then challenged intra-nasally (i.n.) with 1 mg/kg/d Ova for 5 days from days 23-27. Control mice were sensitized with Ova and challenged with saline. The chambers were also calibrated each time before data collection. Briefly, the nasal chamber in combination with the thoracic chamber allows the computation of specific airway resistance (sRaw). The FinePointe software computes specific airway resistance (sRaw) with all other ventilatory parameters derived by the NAM analyzer. Mice were exposed to aerosolized PBS (for the baseline measurement) or methacholine (1.5625-12.5 mg/mL) for 1 minute and readings were taken and averaged for 3 minutes after each nebulization. Data obtained were presented as sRaw versus the methacholine concentration (mg/mL) used to generate the aerosol. FIG. 5A-5F show compound effects on airway hyperresponsiveness. Specific airway resistance (sRaw) was measured at increasing dosages of methacholine by a DSI's Buxco FinePointe non-invasive airway mechanics instrument. Ova s/c BALB/c mice were administered all compounds via oral gavage, 100 mg/kg twice daily for 5 days. Data represent mean±SEM from 10 mice in each group. *, **, and *** indicate p<0.05, p<0.01, p<0.001 significance, respectively, compared to vehicle treated ova s/c BALB/c mice.

Compound	MLM % remaining after 60 min [1] [%]	production of mucin (mucin)	airway hyperresponsiveness (sRaw) [2]
CCOC(=O)c1ncn2c1[C@@H]1CCCN1C(=O)c1cc(O)ccc1-2 [RJ-02-50, ethyl (S)-7-hydroxy-9-oxo-11,12,13,13a-tetrahydro-9H-benzo[e]imidazo[5,1-c]pyrrolo[1,2-a][1,4]diazepine-1-carboxylate]	91.1 ± 0.1	did not change the production of mucin	reduced airway hyperresponsiveness at one or multiple concentrations of methacholine
C#Cc1ccc2c(c1)C(c1ccccc1F)=N[C@H](C)c1c(C(=O)O)ncn1-2 [SH-053-2′F-R-CH3-Acid, (R)-8-ethynyl-6-(2-fluorophenyl)-4-methyl-4H-benzo[f]imidazo[1,5-a][1,4]diazepine-3-carboxylic acid]	89.0 ± 0.3	did not change the production of mucin	reduced airway hyperresponsiveness at one or multiple concentrations of methacholine
C[C@H]1N=C(c2ccccc2F)c2cc(Br)ccc2-n2cnc(C(=O)O)c21 [GL-II-93, (R)-8-bromo-6-(2-fluorophenyl)-4-methyl-4H-benzo[f]imidazo[1,5-a][1,4]diazepine-3-carboxylic acid]	–	did not change the production of mucin	reduced airway hyperresponsiveness at one or multiple concentrations of methacholine
O=C1c2cc(O)ccc2-n2cnc(-c3cnco3)c2[C@@H]2CCCN12 [RJ-03-30, (S)-7-hydroxy-1-(oxazol-5-yl)-11,12,13,13a-tetrahydro-9H-benzo[e]imidazo[5,1-c]pyrrolo[1,2-a][1,4]diazepin-9-one]	80.0 ± 0.3	–	not able to alleviate airway hyperresponsiveness
